The experiment has as its system SARS-CoV-2 (Omicron variant, B.1.1.529.1/BA.1 sublineage). In kind it is cell-based.

As to `OC[C@H]1O[C@@H](n2cnc3c(N[C@@H]4CCOC4)ncnc32)[C@H](O)[C@@H]1O` [tecadenoson], the “100% CPE inhibitory concentration (CPEIC100)” value was 7.65 ± 0.25 µM.

The record behind these values is PMC9631343 (ACS Bio & Med Chem Au, 2022).
